This note sets out measurements from publication PMC12190468, “Designing New Chimeric Proline-Rich Antimicrobial Peptides to Enhance Efficacy Toward the ESKAPE+E: Beyond Sequence Extension” (Biomolecules, 2025).

Ends that are not written are not given here.

Assay [1] relates to E. coli BW 25113 ΔsbmA. Format: cell-based, Escherichia coli. The note with it: full MHB, 18 h at 37 °C, mode of at least three independent experiments. As for the experimental part:
(§1) Reference bacterial strains, including Escherichia coli BW25113, Escherichia coli ATCC 25922, Klebsiella pneumoniae ATCC 700603, Acinetobacter baumannii ATCC 19606, Enterobacter cloacae ATCC 13047, Pseudomonas aeruginosa ATCC 27853, Staphylococcus aureus ATCC 25923, and Enterococcus faecium ATCC 19434, were obtained from the American Type Culture Collection (ATCC) in Manassas, VA, USA. Strains were stored at −80 °C in glycerol stocks until use. For all experiments, cultures were grown in sterile MHB (Difco Inc., Becton Dickinson, Sparks, MD, USA). Overnight cultures were incubated at 37 °C for approximately 18 h under shacking (140 rpm, then diluted 1:30 in fresh MHB and again shaken at 140 rpm for ~2 h to reach the mid-log phase (OD ~0.3 at 600 nm). The bacterial cultures were then diluted to the desired concentration for experiments. E. coli BW25113 ΔsbmA (Keio collection) was grown in MHB with the addition of 50 μg/mL kanamycin (Sigma, Milan, Italy).
(§2) Antimicrobial activity was assessed using the Minimum Inhibitory Concentration (MIC) assay, following CLSI guidelines. Briefly, peptides were serially diluted in MHB across a 96-well round-bottom plate (Sarstedt, Milan, Italy), starting with 50 μL in the first well. A mid-log bacterial culture was diluted to 5 × 10^5 CFU/mL, and 50 μL of this suspension was added to each well (except the MHB sterility control wells). […] MIC values were confirmed by at least three independent experiments (n ≥ 3).

For assay [2], the system named is E. coli ATCC 25922. In kind it is cell-based, Escherichia coli. The note with it: ATCC 25922, 18 h. How it is done: as §1, §2
Assay [3] deals with E. coli BW 25113. In kind it is cell-based, Escherichia coli. The note with it: full MHB, 18 h at 37 °C, mode of at least three independent experiments. As for the experimental part:
as §1, §2

Assay [4] concerns A. baumannii ATCC 19606. Format: cell-based, Acinetobacter baumannii. The note with it: ATCC 19606, 18 h. How it is done: as §1, §2
Assay [5] concerns E. cloacae ATCC 13047. Format: cell-based, Enterobacter cloacae. Particulars: ATCC 13047, 18 h. As for the experimental part: as §1
(§3) The Minimal Bactericidal Concentration (MBC) was determined by plating 25 μL from clear MIC wells onto MH-agar Petri dishes (Difco Inc., Becton Dickinson, Sparks, MD, USA), followed by overnight incubation at 37 °C. The MBC was the lowest compound concentration, reducing bacterial viability by ≥99.9%. Results were based on at least three independent experiments (n ≥ 3).

For assay [6], the system named is P. aeruginosa ATCC 27853. In kind it is cell-based, Pseudomonas aeruginosa. The note with it: ATCC 27853, 18 h. How it is done: as §1, §3
Assay [7] deals with E. cloacae ATCC 13047. In kind it is cell-based, Enterobacter cloacae. Particulars: ATCC 13047, 18 h. As for the experimental part: as §1, §2
The source holds these as a separate data set.

The subject of assay [8] is S. aureus ATCC 25923. Format: cell-based, Staphylococcus aureus. The note with it: ATCC 25923, 18 h. How it is done: as §1, §2
Assay [9] concerns P. aeruginosa ATCC 27853. Format: cell-based, Pseudomonas aeruginosa. The note with it: ATCC 27853, 18 h. How it is done:
as §1, §2
The source holds these as a separate data set.

Assay [10] concerns E. coli BW 25113 ΔsbmA. In kind it is cell-based, Escherichia coli. The note with it: ≥99.9% reduction of viability, after 18 h at 37 °C, mode of at least three independent experiments. How it is done: as §1, §3
Assay [11] deals with E. coli ATCC 25922. Format: cell-based, Escherichia coli. Particulars: ATCC 25922, 18 h. As for the experimental part:
as §1, §3
This is another data set of the same source.

Assay [12] has as its system E. coli BW 25113. In kind it is cell-based, Escherichia coli. The note with it: ≥99.9% reduction of viability, after 18 h at 37 °C, mode of at least three independent experiments. How it is done: as §1, §3
In assay [13] the test system is S. aureus ATCC 25923. Format: cell-based, Staphylococcus aureus. Particulars: ATCC 25923, 18 h. As for the experimental part: as §1, §3
The source holds these as a separate data set.

In assay [14] the test system is E. faecium ATCC 19434. Format: cell-based, Enterococcus faecium. Particulars: ATCC 19434, 18 h. As for the experimental part: as §1, §3
Assay [15] relates to E. faecium ATCC 19434. Format: cell-based, Enterococcus faecium. The note with it: ATCC 19434, 18 h. How it is done:
as §1, §2
This is another data set of the same source.

Assay [16] relates to A. baumannii ATCC 19606. In kind it is cell-based, Acinetobacter baumannii. Particulars: ATCC 19606, 18 h. As for the experimental part:
as §1, §3
The source holds these as a separate data set.

The subject of assay [17] is K. pneumoniae ATCC 700603. Format: cell-based, Klebsiella pneumoniae. Particulars: ATCC 700603, 18 h. As for the experimental part: as §1, §3
In assay [18] the test system is K. pneumoniae ATCC 700603. Format: cell-based, Klebsiella pneumoniae. Particulars: ATCC 700603, 18 h. As for the experimental part:
as §1, §2
The source holds these as a separate data set.

Consider WRIRRRWPRLPRPRWRPRFPPP [Peptide B7-T6], for which the MIC – broadly, the least concentration at which growth counts as inhibited – was found to be 1 µM in the assay on E. coli BW 25113 ΔsbmA [1]; 0.5 µM in the assay on E. coli ATCC 25922 [2]; 1 µM in the assay with E. coli BW 25113 [3]; 1 µM in the assay on A. baumannii ATCC 19606 [4]; 2 µM against E. cloacae ATCC 13047 [7]; 16 µM in the assay with S. aureus ATCC 25923 [8]. Besides, the values for the MIC in the assay with P. aeruginosa ATCC 27853 [9] and against E. faecium ATCC 19434 [15] were 8 µM and 16 µM, respectively. For the same sequence, the entries for the “MIC (geometric mean)” value against E. coli ATCC 25922 [2], against E. cloacae ATCC 13047 [7] and with P. aeruginosa ATCC 27853 [9] were 0,6 µM, 2,5 µM and 12,7 µM, respectively. The MBC (as a rule, the lowest tested concentration that kills the bacteria rather than only halting them) in the assay with E. cloacae ATCC 13047 [5] came out at 4 µM; with P. aeruginosa ATCC 27853 [6], 32 µM; in the assay with E. coli BW 25113 ΔsbmA [10] it was 2 µM; against E. coli ATCC 25922 [11] it was 0.5 µM; in the assay on E. coli BW 25113 [12], 2 µM; against S. aureus ATCC 25923 [13], 32 µM. Moreover, in the assay with E. faecium ATCC 19434 [14], the MBC is over 64 µM. Further, the entries for the “MBC (geometric mean)” value against P. aeruginosa ATCC 27853 [6], against E. coli ATCC 25922 [11] and in the assay on S. aureus ATCC 25923 [13] were 25,4 µM, 0,6 µM and 25,4 µM, respectively.

With WRIRRRWPRLPRPRWRPWFPPR [Peptide B7-L6], the MBC with A. baumannii ATCC 19606 [16] was determined as 2 µM; in assay [17], 4 µM; in the assay with E. cloacae ATCC 13047 [5], 2 µM; against E. coli BW 25113 ΔsbmA [10] it was 2 µM; with E. coli ATCC 25922 [11], 4 µM; with E. coli BW 25113 [12], 1 µM. In addition, the MBC in the assay with S. aureus ATCC 25923 [13] was determined as 8 µM; against E. faecium ATCC 19434 [14], 32 µM. Also, the “MBC (geometric mean)” value is on record as 1,6 µM in the assay with A. baumannii ATCC 19606 [16]; 3,2 µM in [17]; 2,5 µM in the assay on E. cloacae ATCC 13047 [5]; 3,2 µM with E. coli ATCC 25922 [11]; 10,1 µM against S. aureus ATCC 25923 [13]; 40,3 µM against E. faecium ATCC 19434 [14]. For the same sequence, the minimum inhibitory concentration (MIC) was determined as 2 µM against E. coli BW 25113 ΔsbmA [1]; 4 µM against E. coli ATCC 25922 [2]; 2 µM with A. baumannii ATCC 19606 [4]; 2 µM in [18]; 4 µM with P. aeruginosa ATCC 27853 [9]. In addition, the “MIC (geometric mean)” value was 3,2 µM in the assay with E. coli ATCC 25922 [2], 1,6 µM against A. baumannii ATCC 19606 [4], 2,5 µM in assay [18] and 5,0 µM in the assay on P. aeruginosa ATCC 27853 [9].

As to “WRIRRRWPRLPRPRWRPWFPPRFPIPR [Peptide B7-L11]”, the MIC stood at 2 µM in the assay on E. coli BW 25113 ΔsbmA [1]; 2 µM against E. coli ATCC 25922 [2]; 1 µM with E. coli BW 25113 [3]; 2 µM in assay [18]; 8 µM in the assay on P. aeruginosa ATCC 27853 [9]. In addition, the “MIC (geometric mean)” value with E. coli ATCC 25922 [2] is reported as 2,5 µM; in assay [18] it was 2,5 µM; against S. aureus ATCC 25923 [8], 5,0 µM; with P. aeruginosa ATCC 27853 [9], 6,3 µM. The minimum bactericidal concentration (MBC) turned out to be 4 µM in [17]; 2 µM with E. cloacae ATCC 13047 [5]; 2 µM in the assay with E. coli BW 25113 ΔsbmA [10]; 2 µM against E. coli ATCC 25922 [11]; 2 µM against E. coli BW 25113 [12]; 16 µM in the assay with E. faecium ATCC 19434 [14]. Moreover, the “MBC (geometric mean)” value in assay [17] is on record as 3,2 µM; in the assay with E. cloacae ATCC 13047 [5], 2,5 µM; with E. coli ATCC 25922 [11], 2,5 µM.
